Source: ChEMBL document CHEMBL5029169, “Discovery and optimization of covalent EGFR T790M/L858R mutant inhibitors” (Bioorg Med Chem Lett, 2021)
Active and inactive are the calls of the source. No cut-off for these calls is given here.

Assays:
[1] = molecular target: T1, Epidermal growth factor receptor (Homo sapiens, UniProt P00533, L858R/T790M); experiment: Inhibition of EGFR T790M/L858R double mutant (unknown origin) preincubated for 60 mins followed by substrate addition and further incubated for 60 mins in presence of ATP by IMAP-FP assay
[2] = molecular target: T2, Epidermal growth factor receptor (Homo sapiens, UniProt P00533); experiment: Inhibition of wild type EGFR (unknown origin) preincubated for 60 mins followed by substrate addition and further incubated for 60 mins in presence of ATP by IMAP-FP assay
T2 sequence (P00533 whole entry): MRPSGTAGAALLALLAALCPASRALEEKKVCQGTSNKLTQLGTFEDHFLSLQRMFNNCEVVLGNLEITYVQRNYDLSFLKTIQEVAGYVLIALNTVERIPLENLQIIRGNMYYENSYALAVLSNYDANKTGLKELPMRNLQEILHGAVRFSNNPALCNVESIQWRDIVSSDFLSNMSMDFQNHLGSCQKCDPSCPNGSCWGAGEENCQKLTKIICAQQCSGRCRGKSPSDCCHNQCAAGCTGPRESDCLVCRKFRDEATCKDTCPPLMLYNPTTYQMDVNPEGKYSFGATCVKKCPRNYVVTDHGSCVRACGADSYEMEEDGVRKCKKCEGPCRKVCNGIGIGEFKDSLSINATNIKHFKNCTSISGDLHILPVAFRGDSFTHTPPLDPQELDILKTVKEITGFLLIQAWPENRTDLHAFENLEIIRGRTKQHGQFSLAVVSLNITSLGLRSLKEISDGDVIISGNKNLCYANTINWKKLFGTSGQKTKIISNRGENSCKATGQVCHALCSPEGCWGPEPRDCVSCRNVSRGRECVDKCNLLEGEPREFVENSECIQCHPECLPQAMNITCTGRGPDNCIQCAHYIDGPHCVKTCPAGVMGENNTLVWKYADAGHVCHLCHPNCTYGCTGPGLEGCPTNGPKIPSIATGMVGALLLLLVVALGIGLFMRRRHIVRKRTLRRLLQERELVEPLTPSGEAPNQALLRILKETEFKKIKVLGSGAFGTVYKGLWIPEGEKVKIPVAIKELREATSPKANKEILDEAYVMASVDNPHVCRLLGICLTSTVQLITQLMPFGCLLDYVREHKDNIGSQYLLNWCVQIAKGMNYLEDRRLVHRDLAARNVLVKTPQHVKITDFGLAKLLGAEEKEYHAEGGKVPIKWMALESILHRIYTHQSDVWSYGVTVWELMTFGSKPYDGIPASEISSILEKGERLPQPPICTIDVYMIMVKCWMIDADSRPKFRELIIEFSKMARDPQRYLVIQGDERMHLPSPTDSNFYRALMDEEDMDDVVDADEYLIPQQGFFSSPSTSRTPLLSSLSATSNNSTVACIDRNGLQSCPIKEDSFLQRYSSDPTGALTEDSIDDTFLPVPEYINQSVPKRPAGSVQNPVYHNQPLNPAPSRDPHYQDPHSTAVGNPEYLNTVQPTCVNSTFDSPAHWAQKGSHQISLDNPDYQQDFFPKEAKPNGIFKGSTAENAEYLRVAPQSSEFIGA

[3] = molecular target: T1, Epidermal growth factor receptor; experiment: (§1) Inhibition of EGF-induced phosphorylation of EGFR T790M/L858R double mutant in human NCI-H1975 cells preincubated for 120 mins followed by EGF stimulation and measured after 10 mins by ELISA; format: cell-based
[4] = molecular target: T2, Epidermal growth factor receptor; experiment: Inhibition of EGF-induced phosphorylation of wild type EGFR in human NCI-H1975 cells preincubated for 120 mins followed by EGF stimulation and measured after 10 mins by ELISA; format: cell-based
Homo sapiens = species on record: Homo sapiens; experiment: as §1, with “Selectivity ratio of EC50 for inhibition of EGF-induced phosphorylation of wild type EGFR in human NCI-H1975 cells to EC50 for inhibition” for “Inhibition”; format: cell-based; conditions: time 130.0 min
[5] = Oral bioavailability in mouse; format: ADME, organism-based; conditions: in vivo
[6] = molecular target: Serine/threonine-protein kinase B-raf (Homo sapiens) (UniProt P15056); experiment: Inhibition of BRAF (unknown origin) at 1 uM measured after 1 hr relative to control
Serine/threonine-protein kinase B-raf (Homo sapiens), sequence (P15056 whole entry): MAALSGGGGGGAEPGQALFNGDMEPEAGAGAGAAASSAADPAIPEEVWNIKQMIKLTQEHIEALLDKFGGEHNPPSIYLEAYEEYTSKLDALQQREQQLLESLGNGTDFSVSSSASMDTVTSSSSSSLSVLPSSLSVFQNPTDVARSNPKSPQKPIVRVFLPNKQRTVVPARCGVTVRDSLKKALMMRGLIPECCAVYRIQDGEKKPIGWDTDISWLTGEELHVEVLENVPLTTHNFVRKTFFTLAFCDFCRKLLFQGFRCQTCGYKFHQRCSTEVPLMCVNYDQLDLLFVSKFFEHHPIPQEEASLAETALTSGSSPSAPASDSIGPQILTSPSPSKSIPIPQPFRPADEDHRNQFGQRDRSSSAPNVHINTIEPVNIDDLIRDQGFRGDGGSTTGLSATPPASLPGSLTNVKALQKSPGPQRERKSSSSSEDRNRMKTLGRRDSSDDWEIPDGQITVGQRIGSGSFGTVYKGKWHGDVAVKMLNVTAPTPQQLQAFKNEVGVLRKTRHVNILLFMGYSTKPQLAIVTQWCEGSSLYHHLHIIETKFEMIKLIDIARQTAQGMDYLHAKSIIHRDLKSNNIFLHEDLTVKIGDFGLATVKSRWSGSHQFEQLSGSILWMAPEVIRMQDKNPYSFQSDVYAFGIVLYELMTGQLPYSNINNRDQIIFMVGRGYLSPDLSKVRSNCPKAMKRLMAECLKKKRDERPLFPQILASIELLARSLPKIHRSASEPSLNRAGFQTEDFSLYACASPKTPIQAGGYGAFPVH

[7] = molecular target: T3, Serine/threonine-protein kinase BRSK1 (Homo sapiens) (UniProt Q8TDC3); experiment: Inhibition of BRSK1 (unknown origin) at 1 uM measured after 1 hr relative to control
T3 sequence (whole entry): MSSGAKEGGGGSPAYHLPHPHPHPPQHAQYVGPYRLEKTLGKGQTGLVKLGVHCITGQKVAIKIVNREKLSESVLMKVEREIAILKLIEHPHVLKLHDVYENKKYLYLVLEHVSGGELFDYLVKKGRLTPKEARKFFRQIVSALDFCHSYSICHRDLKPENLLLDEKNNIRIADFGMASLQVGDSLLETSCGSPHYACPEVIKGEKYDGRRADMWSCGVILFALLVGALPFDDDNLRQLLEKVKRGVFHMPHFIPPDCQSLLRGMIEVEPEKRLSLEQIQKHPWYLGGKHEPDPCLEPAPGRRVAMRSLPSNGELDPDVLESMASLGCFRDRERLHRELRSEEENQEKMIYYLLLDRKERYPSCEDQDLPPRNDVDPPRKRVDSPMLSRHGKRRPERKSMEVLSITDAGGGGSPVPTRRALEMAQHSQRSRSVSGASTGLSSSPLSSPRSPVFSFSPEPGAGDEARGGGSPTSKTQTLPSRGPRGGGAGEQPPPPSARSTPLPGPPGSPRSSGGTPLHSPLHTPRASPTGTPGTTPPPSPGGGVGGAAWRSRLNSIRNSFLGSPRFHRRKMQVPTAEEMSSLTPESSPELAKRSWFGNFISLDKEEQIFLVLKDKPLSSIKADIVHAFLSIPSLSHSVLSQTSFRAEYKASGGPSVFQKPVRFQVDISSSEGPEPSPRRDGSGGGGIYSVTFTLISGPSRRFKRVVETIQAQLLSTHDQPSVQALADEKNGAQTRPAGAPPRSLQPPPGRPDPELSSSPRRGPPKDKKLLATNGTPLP

[8] = molecular target: Cyclin-dependent kinase 1/cyclin B1 (Homo sapiens) (UniProt P06493+P14635); experiment: Inhibition of cdk1/Cyclin B (unknown origin) at 1 uM measured after 1 hr relative to control; format: protein-complex assay
[9] = molecular target: Serine/threonine-protein kinase Chk2 (Homo sapiens) (UniProt O96017); experiment: Inhibition of CHEK2 (unknown origin) at 1 uM measured after 1 hr relative to control
[10] = molecular target: Casein kinase I isoform gamma-2 (Homo sapiens) (UniProt P78368); experiment: Inhibition of CSNK1G2 (unknown origin) at 1 uM measured after 1 hr relative to control
[11] = molecular target: Dual specificity tyrosine-phosphorylation-regulated kinase 1A (Homo sapiens) (UniProt Q13627); experiment: Inhibition of DYRK1A (unknown origin) at 1 uM measured after 1 hr relative to control
[12] = molecular target: Receptor-type tyrosine-protein kinase FLT3 (Homo sapiens) (UniProt P36888); experiment: Inhibition of FLT3 (unknown origin) at 1 uM measured after 1 hr relative to control
[13] = molecular target: Glycogen synthase kinase-3 beta (Homo sapiens) (UniProt P49841); experiment: Inhibition of GSK3B (unknown origin) at 1 uM measured after 1 hr relative to control
[14] = molecular target: Insulin-like growth factor 1 receptor (Homo sapiens) (UniProt P08069); experiment: Inhibition of IGF1R (unknown origin) at 1 uM measured after 1 hr relative to control
Insulin-like growth factor 1 receptor (Homo sapiens), sequence (P08069 31-736 limits assumed): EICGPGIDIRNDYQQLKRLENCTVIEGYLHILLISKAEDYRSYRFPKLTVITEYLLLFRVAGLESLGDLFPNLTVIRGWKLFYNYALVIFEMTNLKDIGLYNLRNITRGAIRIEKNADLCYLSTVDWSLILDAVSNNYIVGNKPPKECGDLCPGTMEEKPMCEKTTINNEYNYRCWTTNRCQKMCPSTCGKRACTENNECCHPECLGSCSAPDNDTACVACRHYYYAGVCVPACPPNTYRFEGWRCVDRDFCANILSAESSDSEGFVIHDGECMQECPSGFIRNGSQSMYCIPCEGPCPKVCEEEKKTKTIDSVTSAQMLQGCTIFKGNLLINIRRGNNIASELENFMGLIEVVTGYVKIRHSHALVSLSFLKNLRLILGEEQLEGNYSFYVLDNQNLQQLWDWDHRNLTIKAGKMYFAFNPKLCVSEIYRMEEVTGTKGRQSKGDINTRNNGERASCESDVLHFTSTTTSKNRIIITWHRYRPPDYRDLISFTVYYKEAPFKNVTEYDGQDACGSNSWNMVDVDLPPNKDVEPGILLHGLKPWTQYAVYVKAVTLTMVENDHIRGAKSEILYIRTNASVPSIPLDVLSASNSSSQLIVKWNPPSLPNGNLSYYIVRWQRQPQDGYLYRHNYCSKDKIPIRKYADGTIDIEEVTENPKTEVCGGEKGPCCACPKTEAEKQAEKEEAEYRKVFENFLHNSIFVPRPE
Insulin-like growth factor 1 receptor (Homo sapiens), sequence (P08069 741-1367 limits assumed): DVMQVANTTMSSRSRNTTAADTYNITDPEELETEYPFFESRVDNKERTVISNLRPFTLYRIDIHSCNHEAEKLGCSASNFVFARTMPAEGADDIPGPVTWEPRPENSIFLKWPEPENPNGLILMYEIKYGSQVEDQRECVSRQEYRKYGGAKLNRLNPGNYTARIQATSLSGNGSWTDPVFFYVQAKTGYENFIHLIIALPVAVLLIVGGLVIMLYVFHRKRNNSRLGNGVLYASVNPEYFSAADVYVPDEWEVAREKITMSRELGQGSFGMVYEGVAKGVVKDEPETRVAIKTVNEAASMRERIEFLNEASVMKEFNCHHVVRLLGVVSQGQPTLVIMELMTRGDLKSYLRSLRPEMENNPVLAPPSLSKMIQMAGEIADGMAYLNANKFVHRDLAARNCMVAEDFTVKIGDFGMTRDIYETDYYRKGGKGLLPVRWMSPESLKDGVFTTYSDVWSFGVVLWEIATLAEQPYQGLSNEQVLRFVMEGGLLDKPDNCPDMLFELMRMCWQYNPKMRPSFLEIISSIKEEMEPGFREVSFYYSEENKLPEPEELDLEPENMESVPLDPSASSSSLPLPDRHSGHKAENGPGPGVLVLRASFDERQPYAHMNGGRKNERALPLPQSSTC

[15] = molecular target: Dual specificity mitogen-activated protein kinase kinase 1 (Homo sapiens) (UniProt Q02750); experiment: Inhibition of MAP2K1 (unknown origin) at 1 uM measured after 1 hr relative to control
[16] = molecular target: Mitogen-activated protein kinase kinase kinase 9 (Homo sapiens) (UniProt P80192); experiment: Inhibition of MAP3K9 (unknown origin) at 1 uM measured after 1 hr relative to control
Mitogen-activated protein kinase kinase kinase 9 (Homo sapiens), sequence (P80192 whole entry, looked up): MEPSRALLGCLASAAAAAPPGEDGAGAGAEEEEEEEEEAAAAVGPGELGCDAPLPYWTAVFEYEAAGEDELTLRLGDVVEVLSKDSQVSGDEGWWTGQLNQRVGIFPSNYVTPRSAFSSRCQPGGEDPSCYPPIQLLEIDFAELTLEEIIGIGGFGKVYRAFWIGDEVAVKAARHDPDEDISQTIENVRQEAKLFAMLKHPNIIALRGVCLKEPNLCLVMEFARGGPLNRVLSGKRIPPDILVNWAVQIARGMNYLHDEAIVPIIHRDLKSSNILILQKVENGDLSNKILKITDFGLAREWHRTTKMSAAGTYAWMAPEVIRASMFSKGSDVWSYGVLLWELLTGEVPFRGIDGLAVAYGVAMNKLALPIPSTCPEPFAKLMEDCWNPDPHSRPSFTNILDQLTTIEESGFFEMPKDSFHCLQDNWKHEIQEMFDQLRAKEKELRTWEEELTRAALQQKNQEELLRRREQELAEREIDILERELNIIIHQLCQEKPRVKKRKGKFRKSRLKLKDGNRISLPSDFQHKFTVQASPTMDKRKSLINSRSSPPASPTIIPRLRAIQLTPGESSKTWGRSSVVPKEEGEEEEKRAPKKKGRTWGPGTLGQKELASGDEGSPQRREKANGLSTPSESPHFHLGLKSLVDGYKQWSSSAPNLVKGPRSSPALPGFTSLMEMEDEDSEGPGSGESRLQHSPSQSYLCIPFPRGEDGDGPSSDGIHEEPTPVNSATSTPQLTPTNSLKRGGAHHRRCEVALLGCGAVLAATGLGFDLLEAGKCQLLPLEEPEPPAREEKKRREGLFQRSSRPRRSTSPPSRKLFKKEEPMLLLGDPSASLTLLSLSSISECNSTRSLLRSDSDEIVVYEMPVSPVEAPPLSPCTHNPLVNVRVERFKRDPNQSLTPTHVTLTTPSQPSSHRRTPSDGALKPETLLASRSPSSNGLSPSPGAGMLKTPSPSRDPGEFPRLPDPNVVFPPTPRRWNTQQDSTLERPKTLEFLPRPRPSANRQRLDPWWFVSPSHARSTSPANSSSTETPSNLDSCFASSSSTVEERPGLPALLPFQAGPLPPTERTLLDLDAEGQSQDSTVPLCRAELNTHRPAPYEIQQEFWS

[17] = molecular target: Mitogen-activated protein kinase kinase kinase kinase 4 (Homo sapiens) (UniProt O95819); experiment: Inhibition of MAP4K4 (unknown origin) at 1 uM measured after 1 hr relative to control
[18] = molecular target: Mitogen-activated protein kinase 3 (Homo sapiens) (UniProt P27361); experiment: Inhibition of MAPK3 (unknown origin) at 1 uM measured after 1 hr relative to control
[19] = molecular target: Mitogen-activated protein kinase 8 (Homo sapiens) (UniProt P45983); experiment: Inhibition of MAPK8 (unknown origin) at 1 uM measured after 1 hr relative to control
Mitogen-activated protein kinase 8 (Homo sapiens), sequence (P45983 whole entry): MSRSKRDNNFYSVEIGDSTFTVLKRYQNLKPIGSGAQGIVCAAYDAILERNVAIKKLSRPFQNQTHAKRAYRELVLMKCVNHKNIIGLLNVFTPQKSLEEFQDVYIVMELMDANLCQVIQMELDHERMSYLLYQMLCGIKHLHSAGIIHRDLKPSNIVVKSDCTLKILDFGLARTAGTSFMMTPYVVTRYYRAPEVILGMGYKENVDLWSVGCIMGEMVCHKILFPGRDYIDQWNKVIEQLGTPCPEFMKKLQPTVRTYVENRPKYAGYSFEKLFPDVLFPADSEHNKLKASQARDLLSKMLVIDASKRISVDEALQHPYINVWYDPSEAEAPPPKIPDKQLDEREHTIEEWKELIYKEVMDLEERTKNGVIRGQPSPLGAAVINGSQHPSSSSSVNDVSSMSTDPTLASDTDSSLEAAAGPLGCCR

[20] = molecular target: Serine/threonine-protein kinase PLK2 (Homo sapiens) (UniProt Q9NYY3); experiment: Inhibition of PLK2 (unknown origin) at 1 uM measured after 1 hr relative to control
[21] = molecular target: Protein kinase C alpha type (Homo sapiens) (UniProt P17252); experiment: Inhibition of PRKCA (unknown origin) at 1 uM measured after 1 hr relative to control
NCI-H1975 [22] = experiment: Antitumor activity against human NCI-H1975 cells xenografted in mouse model assessed as tumor growth inhibition at 30 mg/kg, po administered bid measured after 11 days relative to control; format: functional; conditions: 264 h, time 11 day, read-out: TGI
[23] = Toxicity in mouse xenografted with human NCI-H1975 cells assessed as change in body weight at 30 mg/kg, po administered bid measured after 11 days; format: organism-based; conditions: in vivo, 264 h, time 11 day
NCI-H1975 [24] = experiment: Antitumor activity against human NCI-H1975 cells xenografted in mouse model assessed as tumor growth inhibition at 30 mg/kg, po administered qd measured after 11 days; format: functional, organism-based; conditions: time 11.0 day
[25] = Inhibition of EGF-induced phosphorylation of EGFR T790M/L858R double mutant in human NCI-H1975 cells preincubated for 2 hrs followed by EGF stimulation and measured after 10 mins by ELISA; format: cell-based

SMILES	IC50 [1]	IC50 [2]	EC50 [3]	EC50 [4]	inhibition [6]	inhibition [7]	inhibition [8]	inhibition [9]	inhibition [10]	inhibition [11]	inhibition [12]	inhibition [13]	inhibition [14]	inhibition [15]	inhibition [16]	inhibition [17]	inhibition [18]	inhibition [19]	inhibition [20]	inhibition [21]	other results
C=CC(=O)N1CCC2(CC1)CNC(=O)c1cc(-c3nc(Nc4ccccc4OC)ncc3Cl)[nH]c12	0.8 nM	0.9 nM	3.1 nM	277 nM	–	–	–	–	–	–	–	–	–	–	–	–	–	–	–	–	Ratio EC50 (Homo sapiens): 89
C=CC(=O)N1CCC2(CC1)CNC(=O)c1cc(-c3ccnc(-c4ccc5c(c4)OCO5)n3)[nH]c12	6.5 nM	43 nM	–	–	–	–	–	–	–	–	–	–	–	–	–	–	–	–	–	–	–
C=CC(=O)N1CCC2(CC1)CNC(=O)c1cc(-c3ccnc(Nc4ccccc4OC(C)C)n3)[nH]c12	1.3 nM	1.2 nM	8.8 nM	562 nM	34%	4%	8%	100%	88%	70%	22%	88%	14%	48%	38%	32%	40%	50%	12%	5%	Ratio EC50 (Homo sapiens): 64; bioavailability [5]: 11%; inhibition in vivo at 30 mg/kg (NCI-H1975 [22]): 60%; Activity [23]: Non-Toxic; Activity (NCI-H1975 [24]): Active
C=CC(=O)N1CCC2(CC1)CNC(=O)c1cc(-c3ccnc(Nc4ccccc4OC)n3)[nH]c12	0.9 nM	0.4 nM	40 nM	308 nM	83%	18%	71%	99%	81%	73%	85%	85%	3%	72%	75%	91%	69%	80%	79%	30%	Ratio EC50 (Homo sapiens): 7.7; bioavailability [5]: 3.2%
C=CC(=O)N1CCC2(CC1)CNC(=O)c1cc(-c3nc(Nc4ccccc4OC)ncc3C)[nH]c12	1.2 nM	1.4 nM	12 nM	165 nM	98%	0%	89%	96%	92%	98%	100%	99%	69%	98%	98%	89%	90%	85%	86%	61%	Ratio EC50 (Homo sapiens): 14; bioavailability [5]: 87%
C=CC(=O)Nc1cc(Nc2nccc(-c3cn(C)c4ccccc34)n2)c(OC)cc1N(C)CCN(C)C [OSIMERTINIB]	–	–	–	–	6%	7%	5%	0%	5%	0%	57%	12%	31%	0%	71%	78%	0%	0%	0%	4%	bioavailability [5]: 45%; EC50 [25]: 15 nM
C=CC(=O)N1CCC2(CC1)CNC(=O)c1cc(-c3ccnc(Nc4ccccc4OC)c3)[nH]c12	37 nM	192 nM	> 10000 nM	–	75%	18%	12%	100%	79%	46%	16%	34%	0%	80%	1%	80%	81%	87%	7%	14%	–
CC#CC(=O)Nc1cccc(-c2nccc(-c3cc4c([nH]3)C3(CCNCC3)CNC4=O)n2)c1	499 nM	–	–	–	–	–	–	–	–	–	–	–	–	–	–	–	–	–	–	–	–
C=CC(=O)N1CCC2(CC1)CNC(=O)c1cc(-c3ccnc(-c4cccc(OC)c4)n3)[nH]c12	9.6 nM	32 nM	2550 nM	–	–	–	–	–	–	–	–	–	–	–	–	–	–	–	–	–	–
COc1ccccc1Nc1nccc(-c2cc3c([nH]2)C2(CCN(C(=O)C#CN(C)C)CC2)CNC3=O)n1	2.8 nM	5.3 nM	2180 nM	–	–	–	–	–	–	–	–	–	–	–	–	–	–	–	–	–	–
